In patent publication US11149040B2, “Fused triazole agonists of the APJ receptor” (AMGEN INC., priority 2017, dated 2021):

Biological target: human APJ receptor (Homo sapiens (Human), UniProt P35414)
Assay: [35S]GTPγS binding assay on membranes from CHO cells stably expressing human APJ receptor
Format: biochemical
Settings: read-out: Activity hAPJ SPA EC50 IP
Procedure, shortened: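 Membranes from CHO cells stably expressing FLAG-tagged human APJ; assay buffer GDP, MgCl2 and NaCl levels optimised beforehand. Incubation 90 min at RT, imager read-out. EC50 from non-linear regression on means of several independent experiments.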

Chain of human APJ receptor (P35414 whole entry): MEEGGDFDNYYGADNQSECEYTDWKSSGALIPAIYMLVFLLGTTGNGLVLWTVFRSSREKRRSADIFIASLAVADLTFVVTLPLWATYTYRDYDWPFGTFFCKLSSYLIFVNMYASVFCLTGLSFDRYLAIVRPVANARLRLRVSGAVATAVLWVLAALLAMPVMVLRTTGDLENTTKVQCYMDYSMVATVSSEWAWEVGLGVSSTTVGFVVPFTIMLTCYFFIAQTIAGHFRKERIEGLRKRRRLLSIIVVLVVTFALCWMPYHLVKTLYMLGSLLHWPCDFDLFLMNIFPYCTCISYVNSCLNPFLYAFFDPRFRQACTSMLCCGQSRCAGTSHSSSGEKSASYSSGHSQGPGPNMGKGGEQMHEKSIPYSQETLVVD

Row | SMILES | EC50 [nM]
1 | COC[C@@H]1COc2c(OC)cccc2-c2nnc(NS(=O)(=O)[C@@H](C)[C@@H](OC(C)C)c3ncc(C)cn3)n21 (single isomer, unassigned) [Example 39.0, (1S,2S)-N-((5R)-8-methoxy-5-(methoxymethyl)-5,6-dihydro[1,2,4]traizolo[4,3-d][1,4]benzoxazepin-3-yl)-1-(5-methyl-2-pyrimidinyl)-1-(2-propanyloxy)-2-propanesulfonamide or (1S,2S)-N-((5S)-8-methoxy-5-(methoxymethyl)-5,6-dihydro[1,2,4]traizolo[4,3-d][1,4]benzoxazepin-3-yl)-1-(5-methyl-2-pyrimidinyl)-1-(2-propanyloxy)-2-propanesulfonamide] | 8
2 | Cc1cnc([C@H](OC(C)C)[C@H](C)S(=O)(=O)Nc2nnc3n2[C@H](CO)COc2cccnc2-3)nc1 (mixture of isomers) [Example 58.0, (1S,2S)-N-((R)-5-(hydroxymethyl)-5,6-dihydropyrido[2,3-f][1,2,4]triazolo[4,3-d][1,4]oxazepin-3-yl)-1-isopropoxy-1-(5-methylpyrimidin-2-yl)propane-2-sulfonamide and (1S,2S)-N-((S)-5-(hydroxymethyl)-5,6-dihydropyrido[2,3-f][1,2,4]triazolo[4,3-d][1,4]oxazepin-3-yl)-1-isopropoxy-1-(5-methylpyrimidin-2-yl)propane-2-sulfonamide] | 2100
3 | Cc1cnc([C@H](OC(C)C)[C@H](C)S(=O)(=O)Nc2nnc3n2[C@H](CO)COc2ncccc2-3)nc1 (mixture of isomers) [Example 30.0, (1S,2S)-N-((5R)-5-(hydroxymethyl)-5,6-dihydropyrido[3,2-f][1,2,4]triazolo[4,3-d][1,4]oxazepin-3-yl)-1-(5-methyl-2-pyrimidinyl)-1-(2-propanyloxy)-2-propanesulfonamide and (1S,2S)-N-((5S)-5-(hydroxymethyl)-5,6-dihydropyrido[3,2-f][1,2,4]triazolo[4,3-d][1,4]oxazepin-3-yl)-1-(5-methyl-2-pyrimidinyl)-1-(2-propanyloxy)-2-propanesulfonamide] | 460
4 | COC[C@@H]1COc2ncccc2-c2nnc(NS(=O)(=O)[C@@H](C)[C@@H](OC(C)C)c3ncc(Cl)cn3)n21 (mixture of isomers) [Example 37.0, (1S,2S)-1-(5-chloro-2-pyrimidinyl)-N-((5R)-5-(methoxymethyl)-5,6-dihydropyrido[3,2-f][1,2,4]triazolo[4,3-d][1,4]oxazepin-3-yl)-1-(2-propanyloxy)-2-propanesulfonamide and (1S,2S)-1-(5-chloro-2-pyrimidinyl)-N-((5S)-5-(methoxymethyl)-5,6-dihydropyrido[3,2-f][1,2,4]triazolo[4,3-d][1,4]oxazepin-3-yl)-1-(2-propanyloxy)-2-propanesulfonamide] | 30
5 | Cc1cnc([C@H](OC(C)C)[C@H](C)S(=O)(=O)Nc2nnc3n2[C@H](CO)OCc2ccc(C(F)(F)F)cc2-3)nc1 (single isomer, unassigned) [Example 156.0, (1S,2S)-N-((R)-5-(hydroxymethyl)-10-(trifluoromethyl)-5,6-dihydrobenzo[f][1,2,4]triazolo[4,3-d][1,4]oxazepin-3-yl)-1-isopropoxy-1-(5-methylpyrimidin-2-yl)propane-2-sulfonamide or (1S,2S)-N-((S)-5-(hydroxymethyl)-10-(trifluoromethyl)-5,6 dihydrobenzo[f][1,2,4]triazolo[4,3-d][1,4]oxazepin-3-yl)-1-isopropoxy-1-(5-methylpyrimidin-2-yl)propane-2-snlfonamide] | 2110
6 | COCC1COc2ccc(OC)cc2-c2nnc(NS(=O)(=O)[C@@H](C)[C@@H](OC(C)C)c3ncc(C)cn3)n21 (single isomer, unassigned) [Example 153.0, (1S,2S)-N-((5R)-10-methoxy-5-(methoxymethyl)-5,6-dihydro[1,2,4]triazolo[4,3-d][1,4]benzoxazepin-3-yl)-1-(5-methyl-2-pyrimidinyl)-1-(2-propanyloxy)-2-propanesulfonamide or (1S,2S)-N-((5S)-10-methoxy-5-(methoxymethyl)-5,6-dihydro[1,2,4]triazolo[4,3-d][1,4]benzoxazepin-3-yl)-1-(5-methyl-2-pyrimidinyl)-1-(2-propanyloxy)-2-propanesulfonamide] | 250
7 | Cc1cnc([C@H](OC(C)C)[C@H](C)S(=O)(=O)Nc2nnc3n2[C@H](COC(C)C)COc2ccc(F)cc2-3)nc1 (mixture of isomers) [Example 62.0, (1S,2S)-N-((R)-10-fluoro-5-(isopropoxymethyl)-5,6-dihydrobenzo[f][1,2,4]triazolo[4,3-d][1,4]oxazepin-3-yl)-1-isopropoxy-1-(5-methylpyrimidin-2-yl)propane-2-sulfonamide and (1S,2S)-N-((S)-10-fluoro-5-(isopropoxymethyl)-5,6-dihydrobenzo[f][1,2,4]triazolo[4,3-d][1,4]oxazepin-3-yl)-1-isopropoxy-1-(5-methylpyrimidin-2-yl)propane-2-sulfonamide] | 21
8 | COC[C@@H]1COc2ccc(OC)nc2-c2nnc(NS(=O)(=O)[C@@H](C)[C@H](C)c3ncc(C)cn3)n21 (single isomer, unassigned) [Example 12.0, (2S,3R)-N-((5R)-10-methoxy-5-(methoxymethyl)-5,6-dihydropyrido[2,3-f][1,2,4]triazolo[4,3-d][1,4]oxazepin-3-yl)-3-(5-methyl-2-pyrimidinyl)-2-butanesulfonamide or (2S,3R)-N-((5S)-10-methoxy-5-(methoxymethyl)-5,6-dihydropyrido[2,3-f][1,2,4]triazolo[4,3-d][1,4]oxazepin-3-yl)-3-(5-methyl-2-pyrimidinyl)-2-butanesulfonamide] | 1200
9 | Cc1cnc([C@H](OC(C)C)[C@H](C)S(=O)(=O)Nc2nnc3n2-c2c(F)cccc2/C=C\C[C@@H]3C)nc1 (single isomer, unassigned) [Example 53.0] | 220
10 | C=C1COc2ccccc2-c2nnc(NS(=O)(=O)[C@@H](C)[C@@H](OC(C)C)c3ncc(C)cn3)n21 [Example 17.0, (1S,2S)-N-(5-Methylidene-5,6-dihydro[1,2,4]triazolo[4,3-d][1,4]benzoxazepin-3-yl)-1-(5-methyl-2-pyrimidinyl)-1-(2-propanyloxy)-2-propanesulfonamide] | 1000
11 | CO[C@H](c1ncc(C)cn1)[C@H](C)S(=O)(=O)Nc1nnc2n1[C@H](COC(C)C)COc1ncccc1-2 (mixture of isomers) [Example 56.0, (1R,2S)-N-((R)-5-(isopropoxymethyl)-5,6-dihydropyrido[3,2-f][1,2,4]triazolo[4,3-d][1,4]oxazepin-3-yl)-1-methoxy-1-(5-methylpyrimidin-2-yl)propane-2-sulfonamide and (1R,2S)-N-((S)-5-(isopropoxymethyl)-5,6-dihydropyrido[3,2-f][1,2,4]triazolo[4,3-d][1,4]oxazepin-3-yl)-1-methoxy-1-(5-methylpyrimidin-2-yl)propane-2-sulfonamide] | 2200
12 | COc1ccc2c(c1)-c1nnc(NS(=O)(=O)[C@@H](C)[C@@H](OC(C)C)c3ncc(C)cn3)n1C(CO)CO2 (single isomer, unassigned) [Example 150.0, (1S,2S)-N-((5R)-5-(hydroxymethyl)-10-methoxy-5,6-dihydro[1,2,4]triazolo[4,3-d][1,4]benzoxazepin-3-yl)-1-(5-methyl-2-pyrimidinyl)-1-(2-propanyloxy)-2-propanesulfonamide or (1S,2S)-N-((5S)-5-(hydroxymethyl)-10-methoxy-5,6-dihydro[1,2,4]triazolo[4,3-d][1,4]benzoxazepin-3-yl)-1-(5-methyl-2-pyrimidinyl)-1-(2-propanyloxy)-2-propanesulfonamide] | 1880
13 | COC[C@@H]1COc2ccc(F)cc2-c2nnc(NS(=O)(=O)[C@@H](C)[C@H](OC)c3ncc(C)cn3)n21 (single isomer, unassigned) [Example 27.0, (1R,2S)-N-((5R)-10-fluoro-5-(methoxymethyl)-5,6-dihydro[1,2,4]triazolo[4,3-d][1,4]benzoxazepin-3-yl)-1-methoxy-1-(5-methyl-2-pyrimidinyl)-2-propanesulfonamide or (1R,2S)-N-((5S)-10-fluoro-5-(methoxymethyl)-5,6-dihydro[1,2,4]triazolo[4,3-d][1,4]benzoxazepin-3-yl)-1-methoxy-1-(5-methyl-2-pyrimidinyl)-2-propanesulfonamide] | 490
14 | COC[C@@H]1COc2ccc(OC)nc2-c2nnc(NS(=O)(=O)[C@@H](C)[C@H](C)c3ncc(C)cn3)n21 (single isomer, unassigned) [Example 13.0, (2S,3R)-N-((5R)-10-methoxy-5-(methoxymethyl)-5,6-dihydropyrido[2,3-f][1,2,4]triazolo[4,3-d][1,4]oxazepin-3-yl)-3-(5-methyl-2-pyrimidinyl)-2-butanesulfonamide or (2S,3R)-N-((5S)-10-methoxy-5-(methoxymethyl)-5,6-dihydropyrido[2,3-f][1,2,4]traizolo[4,3-d][1,4]oxazepin-3-yl)-3-(5-methyl-2-pyrimidinyl)-2-butanesulfonamide] | 370
15 | COC[C@@H]1COc2ccccc2-c2nnc(NS(=O)(=O)[C@@H](C)[C@@H](OC(C)C)c3ncc(C)cn3)n21 (single isomer, unassigned) [Example 4.0, (1S,2S)-N-((5R)-5-(methoxymethyl)-5,6-dihydro[1,2,4]triazolo[4,3-d][1,4]benzoxazepin-3-yl)-1-(5-methyl-2-pyrimidinyl)-1-(2-propanyloxy)-2-propanesulfonamide or (1S,2S)-N-((5S)-5-(methoxymethyl)-5,6-dihydro[1,2,4]triazolo[4,3-d][1,4]benzoxazepin-3-yl)-1-(5-methyl-2-pyrimidinyl)-1-(2-propanyloxy)-2-propanesulfonamide] | 17
